The values that follow are results of earlier work, collected in US20090098173A1, “TOPICAL PAIN RELIEF PRODUCT” (priority 2007, published 2009).

The conditions of this data set: as described in U.S. Pat. No. 7,189,760 / 7,030,273.

Regarding `CCOC(=O)CNC(=O)C1CC(C)CCC1C(C)C` (stereo not shown) [ethyl ester of N-[[5-methyl-2-(1-methylethyl)cyclohexyl]carbonyl]glycine], the physiological cooling activity result was “substantially high physiological cooling activity”.
